Source: patent US11944623B2, “Modulators of Kv3 channels to treat pain” (Autifony Therapeutics Limited, priority 2015, dated 2024)

Key:
[1] = tested on: rat model of persistent inflammatory pain; assay: Persistent inflammatory pain model (intraplantar FCA): paw withdrawal to mechanical pressure and cold (10° C.), general observations; format: in vivo; details: 30 mg/kg oral
Protocol: (§1) The efficacy of Compounds 1, 2, 3 and 4 was investigated using rat models of neuropathic and/or persistent inflammatory pain.
(§2) Subjects comprised male, Wistar Hanover rats, 6 animals per group (225±2 g for Compound 1 studies and Compound 2 studies; 214±1 g for Compound 3 studies; 236±1 g for Compound 4 studies).
(§3) Vehicle (12% Captisol®; 0.5% w/v HPMC and 0.1% w/v Tween-80; 5 ml/kg via the intraperitoneal route) was prepared using autoclaved deionized water not more than one week prior to use.
(§4) The details of the studies performed are outlined in Table 1.
(§5) The control for the neuropathic pain model was lamotrigine, administered at 30 mg/kg via oral delivery. The control for the inflammatory pain model was diclofenac, administered at 30 mg/kg via oral delivery. Statistical analysis was performed using one-way ANOVA, and comparisons were performed with time-matched vehicle group using Tukey's HSD test wherein * p<0.05, ** p<0.01, *** p<0.001.
(§6) Treatment groups were randomised and blinded. Groups of 6 rats were used.
Mechanical hyperalgesia was examined in a model of persistent inflammatory pain. The hyperalgesia was induced by an intraplantar injection (25 μl) of Freund's Complete Adjuvant (FCA) into the left hind paw.
To assess the effect of the test compound, paw withdrawal thresholds or latencies were measured on both the ipsilateral (FCA-injected) and contralateral (non-injected) paws, prior to (naïve) and 24 hours following FCA injection (predose), and then at 1, 3, 6 and 24 hours after drug or vehicle administration.
(§7) Mechanical hyperalgesia was examined in a model of neuropathic pain by measuring paw withdrawal thresholds (PWT) to increasing mechanical force applied to the dorsal surface of the rat paw using an Analgesymeter (Ugo-Basile, Milan) equipped with a wedge-shaped probe (area 1.75 mm^2). Cut-off was set at 250 g and the end-point was taken as withdrawal of the hind paw. Both ipsilateral and contralateral paw withdrawal readings were taken.
(§8) Cold sensitivity was assessed using a commercially available cold-plate (Ugo Basile, Milan). The cold plate was allowed to stabilize for 5 minutes at the set temperature prior to testing. Paw withdrawal latencies (PWL) were determined with the cold-plate set at 10° C. The animals were lightly restrained and each hind paw in turn placed onto the surface of the cold-plate. The end point was taken as the withdrawal of the paw and recorded as the withdrawal latency for the ipsilateral and the contralateral paw. A maximum cut-off of 30 seconds was used for each paw.
(§9) In addition to behavioural pain readings, each rat was observed throughout the study for changes in general behaviour.
(§10) Data were expressed as withdrawal threshold (g) or withdrawal latencies (s) and percentage reversals calculated according to the following formula: […]
(§11) Statistical analysis was carried out on withdrawal threshold readings using ANOVA with repeated measures followed by Tukey's HSD test. The level for statistical significance was set as p<0.05.

[2] = tested on: rat model of neuropathic pain; assay: Neuropathic pain model (partial ligation of the sciatic nerve): paw withdrawal to mechanical pressure and cold (10° C.), general observations; format: in vivo
Protocol: as §1, §2, §3, §4, §5, §6
Neuropathic pain was induced by partial ligation of the sciatic nerve. Briefly, the rats were anaesthetised (isoflurane/O2 inhalation), the left sciatic nerve exposed at mid-thigh level through a small incision and ⅓ to ½ of the nerve thickness tightly ligated within a 7.0 silk suture. The wound was closed with surgical glue. Animals were allowed to recover and tested 12-15 days following surgery.
Withdrawal thresholds or latencies were measured on both the ipsilateral (ligated) and contralateral (non-ligated) paws, prior to (predose) and then up to 24 h following drug or vehicle administration.
Pre-dose behavioural measurements were obtained by measuring paw withdrawals 14 days following nerve ligation; before the initiation of drug treatment. Following treatment, further readings were taken at 1, 3, 6 and 24 hour after administration.
as §7, §8, §9, §10, §11

[3] = positive control in Compound 2 study, 3 hours post-dose
[4] = positive control in Compound 3 study, 3 hours post-dose
[5] = positive control in Compound 4 study
[6] = positive control in Compound 2 Study 1, 30 mg/kg oral, 3 hours post-dose
[7] = positive control in Compound 3 neuropathic study, 30 mg/kg oral, 3 hours post-dose
[8] = positive control in Study 2 (Compounds 1 and 2), 30 mg/kg oral, 3 hours post-dose

Compound | peak reversal, mechanical ([1]; positive control in Compound 1 study, 1 hour post-dose) [%] | peak reversal, cold ([1]; positive control in Compound 1 study, 3 hours post-dose) [%] | peak reversal, cold [1, 3] [%] | peak reversal, mechanical [1, 3] [%] | peak reversal, cold [1, 4] [%] | peak reversal, mechanical [1, 4] [%] | reversal, cold [1, 5] [%] | reversal, mechanical [1, 5] [%] | peak reversal, cold ([2]; positive control in Compound 1 Study 1, 30 mg/kg oral, 1 hour post-dose) [%] | peak reversal, mechanical ([2]; positive control in Compound 1 Study 1, 30 mg/kg oral, 3 hours post-dose) [%] | peak reversal, cold [2, 6] [%] | peak reversal, mechanical [2, 6] [%] | peak reversal, cold [2, 7] [%] | peak reversal, mechanical [2, 7] [%] | peak reversal, cold [2, 8] [%] | peak reversal, mechanical [2, 8] [%]
O=C(O)Cc1ccccc1Nc1c(Cl)cccc1Cl [diclofenac, reference compound] | 64 | 79 | 69 | 66 | 45 | 60 | 50 | 49 |  |  |  |  |  |  |  | 
Nc1nnc(-c2cccc(Cl)c2Cl)c(N)n1 [lamotrigine, reference compound] |  |  |  |  |  |  |  |  | 58 | 65 | 58 | 54 | 74 | 61 | 67 | 67
